Paper PMC5735069, “Targeting the NFAT1-MDM2-MDMX Network Inhibits the Proliferation and Invasion of Prostate Cancer Cells, Independent of p53 and Androgen” (Frontiers in Pharmacology, 2017)

Legend:
MDMX = biological target: T1, MDMX (Homo sapiens, UniProt O15151); test: biotin-InuA streptavidin pulldown with free InuA competition; time-dependent covalent binding kinetics by Western blot (biotin-InuA)
T1 construct: gene MDM4; GST-MDMX RING (RING domain)
T1 sequence (O15151 428-490 limits assumed): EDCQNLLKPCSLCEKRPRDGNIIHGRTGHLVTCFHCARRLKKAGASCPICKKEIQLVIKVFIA

MDM2 = biological target: T2, MDM2 (Homo sapiens, UniProt Q00987); test: as above
T2 construct: GST-MDM2 RING (RING domain)
T2 sequence (Q00987 428-491 limits assumed): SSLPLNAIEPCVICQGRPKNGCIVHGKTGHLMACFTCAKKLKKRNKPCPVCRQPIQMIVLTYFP

For Inulanolide A [InuA], the KI (inactivation) (MDMX) was 860 nM and the KI (inactivation) (MDM2) was 550 nM.
